Data as given in patent publication US20090326003A1, “PYRAZOLO (3, 4-B) PYRIDINE DERIVATIVES AS PDE4 INHIBITORS” (priority 2006, published 2009).

System: LPS-induced pulmonary neutrophilia
Test: LPS induced pulmonary neutrophilia in rats, intratracheally administered PDE4 inhibitors
Type: in vivo
Details: rat, intratracheal (i.t.) 2 hours prior to LPS challenge, wet suspension in saline/tween; for inhibition of the neutrophilia: dose not stated
From the text: This assay is an animal model of inflammation in the lung—specifically neutrophilia induced by lipopolysaccharide (LPS)— and allows the study of putative inhibition of such neutrophilia (anti-inflammatory effect) by intratracheally (i.t.) administered PDE4 inhibitors. The PDE4 inhibitors are preferably in dry powder or wet suspension form. I.t. administration is one model of inhaled administration, allowing topical delivery to the lung.
Animals: Male CD (Sprague Dawley Derived) rats supplied by Charles River, Raleigh, N.C., USA or Charles River, United Kingdom are housed in groups of 5 rats per cage, acclimatized after delivery for at least 5 days with bedding/nesting material regularly changed, fed on SDS diet R1 pelleted food given ad lib, and supplied with daily-changed pasteurized animal grade drinking water.
Device for wet suspension administration: This is similar to the above but a blunt dosing needle, whose forward end is slightly angled to the needle axis, is used, with a flexible plastic portex canula inserted into the needle.
Wet suspensions of the drug (aqueous) can be prepared by adding the required volume of vehicle to the drug; the vehicle used can for example be saline alone or a mixture of saline/tween (e.g. 0.2% tween 80). The wet suspension is usually sonicated for ca. 10 minutes prior to use.
Preparation, and dosing with PDE 4 inhibitor: Rats are anaesthetized by placing the animals in a sealed Perspex chamber and exposing them to a gaseous mixture of isoflurane (4.5%), nitrous oxide (3 litres.minute^−1) and oxygen (1 litre.minute^−1). Once anaesthetized, the animals are placed onto a stainless steel i.t. dosing support table. They are positioned on their back at approximately a 35° angle. A light is angled against the outside of the throat to highlight the trachea. […]
Neutrophil cell counts: The Bronchoalveolar lavage (BAL) samples are centrifuged at ca. 1300 rpm for ca. 7 minutes. […] The total cells are also counted from the resuspension. From these two counts, the total numbers of neutrophils in the BAL are determined. […]

Structure (SMILES) | ED50 for inhibition of neutrophilia | inhibition of the neutrophilia
CCc1nc2c(cnn2CC)c(NC2CCOCC2)c1CNC(=O)c1ccc(-c2ccc(C(=O)NCc3c(CC)nc4c(cnn4CC)c3NC3CCOCC3)cc2)cc1 [Example 23, N,N′-bis{[1,6-diethyl-4-(tetrahydro-2H-pyran-4-ylamino)-1H-pyrazolo[3,4-b]pyridin-5-yl]methyl}-4,4′-biphenyldicarboxamide] | about 50 micrograms/kg body weight | –
CCn1ncc2c(NC3CCOCC3)c(CNC(=O)c3cccc(-c4cccc(C(=O)NCc5c(C)nc6c(cnn6CC)c5NC5CCOCC5)c4)c3)c(C)nc21 [Example 29, N,N′-bis{[1-ethyl-6-methyl-4-(tetrahydro-2H-pyran-4-ylamino)-1H-pyrazolo[3,4-b]pyridin-5-yl]methyl}-3,3′-biphenyldicarboxamide] | – | about 40%
CCc1nc2c(cnn2CC)c(NC2CCOCC2)c1CNC(=O)c1ccc(C(=O)NCc2c(CC)nc3c(cnn3CC)c2NC2CCOCC2)o1 [Example 35, N,N′-bis{[1,6-diethyl-4-(tetrahydro-2H-pyran-4-ylamino)-1H-pyrazolo[3,4-b]pyridin-5-yl]methyl}-2,5furandicarboxamide] | – | about 43%
